Source: patent publication US20120276545A1, “METHOD FOR USING DIVISION ARRESTED CELLS IN SCREENING ASSAYS” (LIFE TECHNOLOGIES CORPORATION, priority 2002, published 2012)

Tests used:
[1] = target: T1, 5HT2c (Rattus norvegicus, UniProt P08909); experiment: Ca2+ mobilization by FACS (Indo-1) in NIH3T3-POP cells expressing 5HT2c; format: cell-based; settings: Mesulergine (10 μM) pretreated division arrested cells, 10 μM 5HT
T1 sequence (P08909 33-460): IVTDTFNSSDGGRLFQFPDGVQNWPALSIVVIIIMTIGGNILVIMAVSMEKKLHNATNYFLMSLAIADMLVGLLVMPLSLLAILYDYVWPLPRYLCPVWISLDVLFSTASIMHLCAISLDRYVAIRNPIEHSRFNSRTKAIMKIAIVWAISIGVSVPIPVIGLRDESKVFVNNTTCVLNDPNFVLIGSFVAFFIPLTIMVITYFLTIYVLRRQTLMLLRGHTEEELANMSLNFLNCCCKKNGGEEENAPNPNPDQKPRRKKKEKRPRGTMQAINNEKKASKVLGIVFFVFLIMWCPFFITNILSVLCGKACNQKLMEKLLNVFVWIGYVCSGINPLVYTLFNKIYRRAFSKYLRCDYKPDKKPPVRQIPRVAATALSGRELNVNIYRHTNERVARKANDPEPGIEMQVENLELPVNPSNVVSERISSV
Description: (§1) In order to measure and to analyze Ca^2+ mobilization, a commercially available cell sorter was used. Excitation was set at 360 nm, and emissions were set at both 400 (+/−15 nm) and 500 (+/−20)nm. The emissions were monitored simultaneously, and the emission ratio at 400 nm/500 nm was used to report the intracellular rise of Ca^2+ concentration. Untreated cells were used to set a baseline ratio.

[2] = test system: parental NIH3T3 cells; experiment: Ca2+ mobilization control in untransfected parental NIH3T3 cells; format: cell-based; settings: parental NIH3T3 cells not transfected; data not shown
Description: as §1

CN1C[C@@H](NS(=O)(=O)N(C)C)C[C@@H]2c3cccc4c3c(cn4C)C[C@H]21 [Mesulergine] was tested, and the “cells responding to serotonin in Ca++ mobilization” value [1] was 0.1%.

In the case of NCCc1c[nH]c2ccc(O)cc12 [serotonin], the “fluorescence change when treated with serotonin” value [2] is reported as “no fluorescence change”.
